Reference: the NIST ThermoML archive (doi:10.1016/j.jct.2016.11.002)
Values joined by “and” are separate entries in the source; they are usually repeats but may differ in a detail not shown here. Equal values may be shown once.

How the values were obtained:
[1] = refractive index (Na D-line) (dimensionless); xn = mol fraction of the nth substance listed; conditions: 100 kPa, Liquid, Standard Abbe refractometry, x1 = 1
[2] = xn = mol fraction of the nth substance listed; conditions: 100 kPa, Liquid, x1 = 1; for speed of sound: Frequency=3 MHz, Single path-length method; for mass density: Vibrating tube method
[3] = 100 kPa, Liquid; for speed of sound: Frequency=3 MHz, Single path-length method; for mass density: Vibrating tube method
[4] = refractive index (Na D-line) (dimensionless); conditions: 100 kPa, Liquid, Standard Abbe refractometry

CCOC(=O)OCC [diethyl carbonate] + COCCO
Conditions | mass density, [2] [kg/m3] | refractive index, [1] | speed of sound, [2] [m/s]
298.15 K | 969.1 | 1.3825 | 1177.5
303.15 K | 963.47 | 1.3802 | 1156.9
308.15 K | 957.81 | 1.3779 | 1136.6
313.15 K | 952.13 | 1.3756 | 1116.5
318.15 K | 946.43 | 1.3733 | 1096.5
323.15 K | 940.69 | 1.371 | 1076.7

CCOC(=O)OCC [diethyl carbonate] + CCCOCCO
Conditions | mass density, [2] [kg/m3] | refractive index, [1] | speed of sound, [2] [m/s]
298.15 K | 969.1 | 1.3825 | 1177.5
303.15 K | 963.47 | 1.3802 | 1156.9
308.15 K | 957.81 | 1.3779 | 1136.6
313.15 K | 952.13 | 1.3756 | 1116.5
318.15 K | 946.43 | 1.3733 | 1096.5
323.15 K | 940.69 | 1.371 | 1076.7

CCOC(=O)OCC [diethyl carbonate] + CCOCCO
Conditions | mass density, [2] [kg/m3] | refractive index, [1] | speed of sound, [2] [m/s]
298.15 K | 969.1 | 1.3825 | 1177.5
303.15 K | 963.47 | 1.3802 | 1156.9
308.15 K | 957.81 | 1.3779 | 1136.6
313.15 K | 952.13 | 1.3756 | 1116.5
318.15 K | 946.43 | 1.3733 | 1096.5
323.15 K | 940.69 | 1.371 | 1076.7

COCCO [2-methoxyethan-1-ol]
Conditions | mass density, [3] [kg/m3] | refractive index, [4] | speed of sound, [3] [m/s]
298.15 K | 960.32 | 1.4001 | 1342.1
303.15 K | 955.71 | 1.3981 | 1324.7
308.15 K | 951.08 | 1.3961 | 1307.4
313.15 K | 946.42 | 1.3943 | 1290
318.15 K | 941.72 | 1.3922 | 1272.7
323.15 K | 936.89 | 1.3902 | 1255.4

CCOCCO [2-ethoxyethan-1-ol]
Conditions | mass density, [3] [kg/m3] | refractive index, [4] | speed of sound, [3]
298.15 K | 925.54 | 1.4055 | 1302.8 m/s
303.15 K | 920.99 | 1.4042 | 1285 m/s
308.15 K | 916.41 | 1.4028 | 1267.3 m/s
313.15 K | 911.8 | 1.4016 | 1249.6 m/s
318.15 K | 907.15 | 1.4001 | 1232 m/s and 1231.5 m/s
323.15 K | 902.46 | 1.3988 | 1214.3 m/s
